Reference: patent publication US7354611B1, “Fecundity-promoting supplement for the insidious flower bug reared on artificial diet” (The United States of America as represented by the …, priority 2003, dated 2008)

Test system: Orius insidiosus
Assay: Orius insidiosus fecundity (oviposition) bioassay: adults fed artificial diet with or without supplement, cumulative eggs laid/female counted on green bean
Type: in vivo
Settings: Test 2
Protocol: Newly emerged adults of Orius insidiosus (<24 hour eclosion) were obtained from a commercial producer of beneficial insects (Entomos, Gainesville, Fla.). The insects were placed on the experimental diets on the third day after eclosion. Each diet treatment consisted of six females and four males in a 100-ml plant tissue culture jar (Sigma, St. Louis, Mo.) with four jars per treatment. Each jar contained one paraffin-encapsulated water dome (50 μl), two artificial diet domes (50 μl), one 7-cm section of green bean pod for oviposition, and three crumpled strips of wax paper (5 mm×80 mm) as substrates for the insects to crawl on. Artificial diet jars contained only artificial diet. Experimental diet jars contained artificial diet plus a supplement. Plodia egg (standard) jars each contained approximately 75 Ploida interpunctella eggs (approximately 3 mg) in place of diet. Although eggs from Euphestia kuehniella are generally used by commercial producers, eggs from P. interpunctella were used because O. insidiosus feeds readily on their eggs. Green beans were removed every other day and examined under a microscope to count eggs and then replaced with a fresh green bean section and mortality was also recorded within each jar. Plodia eggs and domes of water and diet were replaced on the same days that the green beans were removed for counting eggs. The insects were held in a growth chamber at about 25.50±1° C., with approximately 75±5% relative humidity, and a photoperiod of 15:9 (light:dark) hours. The experiments were carried out until the females in all treatments ceased oviposition, approximately 28 days. Diets were prepared under aseptic conditions in a clean room and encapsulated in Parafilm using a diet encapsulation apparatus as described in Ferkovich et al. (BioControl, Volume 45, 401-413, 2000).
The artificial diet was developed for rearing Orius sauteri (Weiru and Ren, 1989, supra), and consisted of approximately 4.0 grams brewers yeast, 0.4 grams sucrose, 2.1 grams soy protein acid hydrolysate, 0.046 grams of 99% palmitic acid (all from Sigma, St. Louis, Mo.), 0.5 grams chicken egg yolk, and 1.0 gram honey in 12 ml distilled water. Palmitic acid was mixed with the egg yolk component before adding it to the diet.
Two tests were conducted. In the first test, artificial diet was compared with the experimental diets which were composed of artificial diet supplemented with homogenized Plodia eggs, and protein and lipid extracts from Plodia eggs as described above. Each experimental diet was compared against the control artificial diet in an independent experiment on different dates. In the second test, any of the statistically significant experimental diets from the first test were then simultaneously compared with the experimental diets containing non-insect supplements.
Each treatment in both tests was replicated four times with 6 females and 4 males/replication. The cumulative number of eggs laid/female on artificial diet and on experimental diet were calculated relative to the percent eggs laid/female on Plodia eggs (standard); thus, mean ±S.E.=[#eggs laid per female on either artificial diet or experimental diet divided by # eggs laid per female on Plodia eggs]×100, n=4. The egg counts were adjusted for mortality. The egg counts per female were calculated for each replication. Data was analyzed by ANOVA using StatMost Software (Dataxiom Software Inc.). […]

[1] = Bovine Serum Albumin 83.3 mg/ml diet
[2] = Bovine Serum Albumin 166.7 mg/ml diet

## Bovine Serum Albumin: Bovine Serum albumin, Fraction V powder, Sigma
[1]
  % of Plodia egg Standard ± SE: 51.3 ± 4.1%
  Mean no. eggs/female ± SE: 19.7 ± 1.6 eggs/female
[2]
  % of Plodia egg Standard ± SE: 64.9 ± 4.2%
  Mean no. eggs/female ± SE: 24.9 ± 1.6 eggs/female
Versus artificial diet (Table 2)
  effect on cumulative mean number of egg oviposited/female: significantly increased
